{"source": "patent US7622106B1", "about": "“Necrosis assay” (Board of Regents, The University of Texas System, priority 2009, dated 2009)", "key": {"HT-29 cells": {"system": "HT-29 cells", "assay": "Smac mimetic plus pan-caspase inhibitor induced necrosis in HT-29 cells", "assay_type": "cell-based, human", "settings": "for cell death of HT-29 cells: Smac mimetic plus z-VAD or Q-VD-OPH co-treatment", "description": "To verify that cell death seen in HT-29 cells was indeed necrosis, cells treated with either vehicle DMSO, or Smac mimetic plus z-VAD, were analyzed by electron microscopy (EM). […] No obvious apoptotic morphological changes were observed.\nSince Smac mimetic induces apoptosis in certain tumor lines as a result of autocrine TNF-α (Petersen et al., 2007; Vince et al., 2007; Varfolomeev et al., 2007), we checked whether autocrine TNF-α is required for the observed necrosis in HT-29 cells. […] Moreover, exogenously added TNF-α augmented Smac mimetic plus z-VAD induced cell death and it did so in a dose dependent manner."}, "T98G cells": {"system": "T98G cells", "assay": "Necrosis induction in T98G cells ectopically expressing RIP3", "assay_type": "cell-based, human", "settings": "T98G cells expressing wild type RIP3, necrosis induction", "source_text": "Since cells resistant to TNF-α induced necrotic death are also defective in RIP3 expression, we then tested whether ectopic expression of RIP3 converts these cells to sensitive ones. When wild type RIP3 was expressed in T98G cells, we saw marked cell death in these cells upon necrosis induction compared to vector transfection controls. […] Moreover, T98G cell death resulted from RIP3 expression was blocked by the necrosis inhibitor, Necrostatin-1. Similar effects were observed when RIP3 was expressed in HeLa cells, MCF-7 cells, and H2009 cells."}, "RIP3/RIPK1": {"target": "RIP3/RIPK1 (Homo sapiens, UniProt Q13546)", "sequence (Q13546 whole entry)": "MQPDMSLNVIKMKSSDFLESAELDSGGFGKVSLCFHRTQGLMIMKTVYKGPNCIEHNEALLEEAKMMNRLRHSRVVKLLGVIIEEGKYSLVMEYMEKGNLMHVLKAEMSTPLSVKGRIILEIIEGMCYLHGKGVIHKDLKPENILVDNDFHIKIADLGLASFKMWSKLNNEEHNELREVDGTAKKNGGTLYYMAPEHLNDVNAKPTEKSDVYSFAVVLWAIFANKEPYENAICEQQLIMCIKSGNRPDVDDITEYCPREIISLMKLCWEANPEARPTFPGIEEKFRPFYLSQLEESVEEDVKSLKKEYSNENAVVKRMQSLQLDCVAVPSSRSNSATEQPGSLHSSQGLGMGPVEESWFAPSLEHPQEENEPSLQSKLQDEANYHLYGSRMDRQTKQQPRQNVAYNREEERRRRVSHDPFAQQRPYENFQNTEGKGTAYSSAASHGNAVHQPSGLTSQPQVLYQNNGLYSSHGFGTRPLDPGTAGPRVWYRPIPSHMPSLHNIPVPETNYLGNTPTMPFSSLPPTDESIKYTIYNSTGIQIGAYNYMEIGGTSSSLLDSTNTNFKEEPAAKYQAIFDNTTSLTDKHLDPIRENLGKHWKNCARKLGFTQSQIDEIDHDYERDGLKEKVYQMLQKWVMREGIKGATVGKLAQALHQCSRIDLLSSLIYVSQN", "assay": "RIP3 up-shift and RIPK1 co-immunoprecipitation in HT-29 cells under necrosis induction", "assay_type": "cell-based", "settings": "co-treatment during necrosis induction (TNF-α, Smac mimetic, z-VAD)", "description": "To test whether endogenous RIP3 indeed interacts with RIPK1 upon necrosis induction, we treated HT-29 cells with TNF-α, Smac mimetic and z-VAD, followed by immuno-precipitation using an anti-RIPK1 antibody at different time points. […] Correlating with the shift, RIP3 was found in the RIPK1 immuno-complex starting at 4 hours of necrosis induction and peaked at 8 hours. The up-shift of RIP3 and its interaction with RIPK1 only occurred under necrosis-inducing conditions. The observed up-shift of RIP3 is most likely due to phosphorylation that depends on its own kinase activity. […] Moreover, the RIP3 band can be shifted down to the original position on SDS-PAGE gel with phosphatase treatment.\nTo further confirm the relevance of RIP3 up-shift and its induced interaction with RIPK1 to necrosis, HT-29 cells were co-treated with Necrostatin-1 during necrosis induction."}, "[1]": {"target": "RIPK1/FADD/caspase-8 complex (Homo sapiens, UniProt Q13546)", "sequence (Q13546 whole entry, one chain of several)": "as the sequence (Q13546 whole entry) above", "assay": "Caspase-8 immunoprecipitation of RIPK1/FADD/caspase-8/RIP3 complex in HT-29 cells", "assay_type": "cell-based", "settings": "co-treatment, anti-caspase-8 immunoprecipitation", "description": "Since RIPK1 forms a complex with caspase-8/FADD upon treatment with TNF-α plus Smac mimetic and the complex is stabilized with z-VAD (Petersen et al., 2007; Wang et al., 2008), we wondered whether it is the same complex that recruits RIP3. To check that directly, we immuno-precipitated caspase-8 and analyzed the composition of the immuno-complex by Western blotting. […] RIP3 continued to be recruited to the complex for up to 6 hours of treatment. Much less proteins were immuno-precipitated at 8 hours with this anti-caspase-8 antibody. This observation might reflect that a large percentage of cells were dying. […] This is consistent with the notion that Necrostatin-1 inhibits RIPK1 kinase activity, which is required for the formation of RIPK1/FADD/caspase-8 complex (Degterev et al., 2008; Wang et al., 2008)."}, "cIAP2": {"target": "T1, cIAP2 (Homo sapiens, UniProt Q13489)", "T1 construct": "endogenous in cells; host or cells: HT-29", "assay": "cIAP2 degradation upon Smac mimetic treatment in HT-29 cells", "assay_type": "cell-based"}, "L929 cells": {"system": "L929 cells", "assay": "Necrotic cell death in L929 cells", "assay_type": "cell-based, mouse", "source_text": "TNF-α induced necrosis has been most extensively studied in mouse fibrosarcoma L929 cells due to its unique ability to undergo necrosis in response to TNF-α, or z-VAD alone (Grooten et al., 1993; Vercammen et al., 1998; Degterev et al., 2005; Kim et al., 2007). To test whether RIP3 is required for necrosis this L929 cells, we knocked down RIP3 with three individual mouse siRNA oligoes. Cell death induced by z-VAD, or TNF-α alone or combination of the two was attenuated when RIP3 was knocked down in L929 cells. The efficacy of necrosis blockage of these oligoes correlated perfectly with the efficiency of RIP3 knockdown."}, "certain tumor cell lines": {"system": "certain tumor cell lines", "settings": "cited from earlier work"}}, "data": [{"molecule": "CN1C(=O)C(Cc2c[nH]c3ccccc23)NC1=S", "note": "(stereo not drawn) [Necrostatin-1]", "values": [{"measurement": "effect on Smac mimetic plus z-VAD induced cell death", "setting": "HT-29 cells; HT-29 cells, agent added to culture", "value": "cell death was prevented"}, {"measurement": "effect on T98G cell death resulting from RIP3 expression", "setting": "T98G cells", "value": "blocked"}, {"measurement": "RIP3 interaction with RIPK1", "setting": "RIP3/RIPK1", "value": "completely prevented"}, {"measurement": "RIP3 up-shift", "setting": "RIP3/RIPK1", "value": "completely prevented"}, {"measurement": "formation of RIPK1/FADD/caspase-8 (RIP3) complexes", "setting": "[1]", "value": "none of these complexes were able to form efficiently"}]}, {"molecule": "CN[C@@H](C)C(=O)N[C@H](C(=O)N1CCC[C@H]1Cn1nnnc1Sc1ccccc1)C(C)OCC#CC#CCO[C@H](C)[C@H](NC(=O)[C@H](C)NC)C(=O)N1CCCC1Cn1nnnc1Sc1ccccc1", "note": "(stereo partly drawn) [Smac mimetic]", "values": [{"measurement": "cell death of HT-29 cells", "setting": "HT-29 cells", "value": "exacerbated cell death"}, {"measurement": "cIAP2 degradation", "setting": "cIAP2", "value": "accelerated degradation"}, {"measurement": "cell death in L929 cells", "setting": "L929 cells", "value": "accelerated cell death"}]}, {"molecule": "TNF-α", "values": [{"measurement": "effect of exogenously added TNF-α on Smac mimetic plus z-VAD induced cell death", "setting": "HT-29 cells; HT-29 cells", "value": "augmented"}]}, {"molecule": "z-VAD", "values": [{"measurement": "cell death of HT-29 cells", "setting": "HT-29 cells", "value": "exacerbated cell death"}, {"measurement": "effect on Smac mimetic induced apoptotic death", "setting": "certain tumor cell lines", "value": "completely blocked"}]}, {"molecule": "Q-VD-OPH", "values": [{"measurement": "cell death of HT-29 cells", "setting": "HT-29 cells", "value": "exacerbated cell death"}]}]}
